# Test results reported in patent publication US10786570B2, “Ferritin nanoparticle compositions and methods to modulate cell activity” (The Rockefeller University, priority 2011, dated 2020).
# Legend:
# Format in all cases: cell-based
# [1] = test system: HEK 293T cells expressing TRPV1^His and Ca2+-dependent human insulin construct; experiment: RF dependent proinsulin release (ELISA)
# Experimental: (§1) RF dependent release of calcium dependent human insulin: 24 h prior to the study, cells were placed in serum free medium at 32° C. to ensure minimal activation of TRPV1 and calcium dependent pathways. On the day of study, cells were preincubated for 30 min in 500 μl PBS or 500 μl of functionalized iron oxide nanoparticles (1 mg/ml) resuspended in PBS. Cells were washed three times in PBS before incubation in 300 μl of calcium imaging buffer at room temperature (control) or in a RF field at room temperature. The supernatant was removed at 15, 30, 45 or 60 min depending on the study, spun to remove cell debris and frozen at −80° C. until assay. For gene expression analysis, cells from the supernatant and cover glass were lysed and the lysate stored at […] until RNA purification. For apoptosis studies, the cells were incubated with functionalized nanoparticles at 1, 2, 4 or 8 mg/ml before RF treatment and immunocytochemistry. […]
# (§2) Assays. Proinsulin was measured in cell supernatants by ELISA (Alpco, Salem, N.H.) according to manufacturer's protocol. Blood glucose was determined using a Breeze 2 glucometer (Bayer; Leverkusen, Germany). […] Plasma levels of human insulin, produced by xenografts, were determined in mouse plasma by human specific ELISA (Alpco).
# [2] = test system: HEK 293T cells expressing TRPV1^His and Ca2+-dependent human insulin construct; experiment: RF dependent insulin gene expression (real-time PCR); settings: ruthenium red
# Experimental: (§3) RF dependent release of calcium dependent human insulin: 24 h prior to the study, cells were placed in serum free medium at 32° C. to ensure minimal activation of TRPV1 and calcium dependent pathways. On the day of study, cells were preincubated for 30 min in 500 μl PBS or 500 μl of functionalized iron oxide nanoparticles (1 mg/ml) resuspended in PBS. Cells were washed three times in PBS before incubation in 300 μl of calcium imaging buffer at room temperature (control) or in a RF field at room temperature. The supernatant was removed at 15, 30, 45 or 60 min depending on the study, spun to remove cell debris and frozen at −80° C. until assay. For gene expression analysis, cells from the supernatant and cover glass were lysed and the lysate stored at […] until RNA purification. For apoptosis studies, the cells were incubated with functionalized nanoparticles at 1, 2, 4 or 8 mg/ml before RF treatment and immunocytochemistry. For RF dependent time course from stable PC12 cells, cells were left in serum containing medium prior to treatment to more accurately replicate conditions in vivo before performing the studies as described above. Medium was removed for assay at 15 and 30 mins.
# (§4) For studies examining the role of TRP channels in RF mediated proinsulin release, ruthenium red (100 μM) was added to the calcium imaging buffer. […]
# [3] = test system: HEK 293T cells transfected with TRPV1, BAPTM and calcium dependent human insulin; experiment: RF dependent insulin gene expression, dual component system; settings: ruthenium red, TRPV1 BAP system
# Experimental: as §3, §4
# [4] = test system: HEK 293T cells transfected with TRPV1, BAPTM and calcium dependent human insulin; experiment: RF dependent proinsulin release, dual component system; settings: ruthenium red, TRPV1 BAP system
# Experimental: as §1, §2
SMILES,"Effect on RF dependent proinsulin release ([1]; Tacrolimus 100 nM, preincubation 24 hours)",Effect on RF dependent insulin gene expression [2],Effect on RF dependent insulin gene expression [3],Effect on RF dependent proinsulin release ([1]; ruthenium red 100 μM in calcium imaging buffer),Effect on RF dependent proinsulin release [4]
"C=CC[C@@H]1/C=C(\C)C[C@H](C)C[C@H](OC)[C@H]2O[C@@](O)(C(=O)C(=O)N3CCCC[C@H]3C(=O)O[C@H](/C(C)=C/[C@@H]3CC[C@@H](O)[C@H](OC)C3)[C@H](C)[C@@H](O)CC1=O)[C@H](C)C[C@@H]2OC [tacrolimus, Tacrolimus]",blocked,–,–,–,–
N.N.N.N.N.N.N.N.N.N.N.N.N.N.[Cl-].[Cl-].[Cl-].[Cl-].[Cl-].[Cl-].[O-2].[O-2].[Ru+3].[Ru+3].[Ru+4] [ruthenium red],–,blocked,blocked,blocked,blocked
